{"source": "patent US20080249144A1", "about": "“Preventive or Therapeutic Agent for Chronic Inflammatory Lung Disease” (KAKEN PHARMACEUITICAL CO., LTD., priority 2004, published 2008)", "key": {"human neutrophils": {"test_system": "human neutrophils", "experiment": "LTB4-induced human neutrophil migration (48-well modified Boyden chamber)", "assay_type": "cell-based", "procedure": "Leukocytes were collected from human peripheral blood samples (20 mL of venous blood was taken by a doctor) were obtained from 4 healthy adults (male). They received sufficient information on the purpose of the experiment and gave informed consent in advance. An equivalent amount of 3% dextran (M.W. 208000) saline solution was added to the heparinized blood thus obtained and the mixture was kept to stand for one hour. Thereafter, the supernatant was collected and centrifuged at 150 g for 5 minutes at 4° C. The supernatant was discarded and the pellet was repeatedly twice haemolysed. To explain in detail, 4 mL of an ice-cooled 0.2% NaCl solution was added, quickly suspended and allowed to stand for 20 to 30 seconds. Thereafter, 4 mL of an ice-cooled 1.6% NaCl solution was added to the suspension solution to return the solution to the isotonic condition. After centrifugation was performed at 150 g for 5 minutes at 4° C., the same treatment was repeated. The cell pellet obtained was finally suspended in a buffer (Hank's solution containing 0.1% FBS) and subjected to an experiment.\nThis experiment was performed using a 48-well modified Boyden chamber (Neuro Probe). To explain in detail, the wells of the bottom plate of the chamber were filled with 25 μl of vehicle solution containing 10 nmol/L of LTB4. A polycarbonate filter (PVP-free, pore size: 3 μm) was placed on the bottom plate. The top plate of the chamber was mounted and each well of the upper plate was filled with 45 μL of a leukocyte suspension solution (1.0×10^6 cells/mL) prepared with the buffer. Immediately after that, 5 μL of a test substance (10 fold concentration of a final concentration) was added to the wells. […] The numbers of cells were counted in 4 visual fields (×400) per well and the average of them was regarded as the number of migrated cells. Each test substance was evaluated using 3 wells. The average value of these wells was calculated and regarded as the value of each substance.\nThe average and standard deviation of each group were calculated. […]"}, "[1]": {"test_system": "PPE-induced pulmonary emphysema model", "experiment": "PPE-induced pulmonary emphysema model in mice", "assay_type": "in vivo", "procedure": "Eight-week old C57BL strain mice were anaesthetized with isoflurane. PPE (25 μg) was administered once to the lung through a cannula inserted into the trachea through the pharyngolarynx to induce a pulmonary damage. To a non-PPE administration group (normal group), saline was administered instead. In a preventive administration experiment (hereinafter referred to as a “preventive experiment”) of KP-496, drug effect was evaluated on inflammatory cells in BALF 2 days after PPE administration and by histopathological examination of the lung after 10 days. In a therapeutic administration experiment of KP-496 (hereinafter referred to as a “therapeutic experiment”), the drug effect was evaluated by histo-pathological examination of the lung and weight of the organs 14 days after PPE administration.\nThe medicament administration period was set from the PPE administration date to the day before autopsy in the preventive experiment and set from a predetermined day (KP-496A group: PPE administration date, KP-496B group: 3 days after PPE administration date, KP-496C group: 7 days after PPE administration date) to the day before autopsy in the therapeutic experiment. Inhalation administration of KP-496 was performed in the same manner as in Example 2. Furthermore, the normal group and the control group were allowed to spontaneously inhale saline, instead. A medicament for use in comparison, prednisolone, was orally administered in a dose of 5 mg/kg twice a day. A group consisted of 10 animals.\nThe animals were anaesthetized with pentobarbital and killed by exsanguination. Immediately after that, BAL of the right and left lungs was performed with 2 ml of saline. In the same manner as in Example 2, the total number of cells and the number of cells according to the cell type in the BALE were determined.\nThe lung was excised out from the animal killed by exsanguination in the same manner as in the above, the weight of the lung was measured. The lung was fixed in 10 vol % neutral buffered formalin solution. A pathological tissue sample was prepared in accordance in a general way. The degree of the damage of the lung tissue observed was evaluated by scoring in the same manner as in Example 2. Furthermore, the average of alveolar-space area of the entire lung tissue sample was computationally measured with image-processing software.\nThe average value and standard deviation of each group were calculated. Comparison between the normal group and the control group was performed by the Levene's test for equal variance and then, the t-test was performed depending on the results. To compare the control group and test substance administration groups, equal variance was first confirmed by the Levene's test and then multiple comparisons were performed in accordance with the Dunnett's test. Note that evaluation parameters with unequal variance and the damage score of the lung tissue were analyzed by nonparametric Mann-Whitney test. The significance level employed was […]."}, "[2]": {"experiment": "KP-496 concentration in the mouse lung tissue after inhalation", "assay_type": "in vivo, mice", "settings": "after 30 min inhalation of nebulized KP-496 solution (0.5 w/v %)", "procedure": "Seven-week old C57BL-strain male mice were was used. The mouse was allowed to inhale nebulized KP-496 for 30 min. through a nasal cavity to the lung tissue in the same manner as in Example 2. After completion of the inhalation, the mouse was killed by exsanguination under anaesthesia with pentobarbital. Immediately after that, the lung was excised out, weighed and freezed at −80° C. to store. A 4-fold volume of phosphate buffer was added to the lung homogenized and measured with LC-MS. The number of animals was five."}, "[3]": {"settings": "2 days after PPE, compared to control group"}, "[4]": {"settings": "preventive experiment, 10 days after PPE"}}, "data": [{"smiles": "CC(C)c1csc(COc2cccc(CN(CCCCNS(=O)(=O)c3ccc(Cl)cc3)S(=O)(=O)c3ccccc3C(=O)O)c2)n1", "note": "[KP-496, 2-{N-[4-(4-chlorobenzenesulfonylamino)butyl]-N-{3-[(4-isopropyl-2-thiazolyl)methoxy]benzyl}}sulfamoylbenzoic acid]", "values": [{"measurement": "suppression of LTB4-induced cell migration, concentration dependence", "setting": "human neutrophils; 10 nmol/L LTB4, human leukocytes, 1.5 hours", "value": "suppressed the cell migration in a concentration dependent manner"}, {"measurement": "suppression of LTB4-induced neutrophil migration", "setting": "human neutrophils; test substance 1 μmol/L, 10 nmol/L LTB4", "value": "significantly suppressed"}, {"measurement": "total number of cells in BALF", "setting": "[1]; 2 days after PPE administration, preventive experiment", "value": "3.1±0.8 ×10^5 cells"}, {"measurement": "number of eosinophils in BALF", "setting": "[1]; [3]", "value": "lower values than in the control group"}, {"measurement": "number of macrophages in BALF", "setting": "[1]; [3]", "value": "significantly decreased"}, {"measurement": "number of neutrophils in BALF", "setting": "[1]; [3]", "value": "significantly decreased"}, {"measurement": "weights of the organs (liver, spleen and thymus gland)", "setting": "[1]; mouse, in vivo", "value": "No effect was observed"}, {"measurement": "emphysema-like pathology of the lung (histopathology)", "setting": "[1]; [4]", "value": "the pathologic lesion was localized and mild"}, {"measurement": "increase in lung weight", "setting": "[1]; [4]", "value": "significantly suppressed"}, {"measurement": "damage score of the lung", "setting": "[1]; preventive experiment, 10 days after PPE, compared with control group", "value": "significantly decreased"}, {"measurement": "increase of the average of the alveolar-space area", "setting": "[1]; preventive experiment, compared to control", "value": "significantly suppressed"}, {"measurement": "lung weight", "setting": "[1]; therapeutic experiment, 14 days after PPE, despite difference of the administration initiation date", "value": "lower values than the control group"}, {"measurement": "damage score of the lung", "setting": "[1]; therapeutic experiment, 14 days after PPE, each of the groups (start day 0, 3 or 7)", "value": "significantly decreased"}, {"measurement": "lung weight, difference to control group", "setting": "[1]; therapeutic experiment, administration started from PPE administration date", "value": "a significant difference was observed"}, {"measurement": "increase of the average of the alveolar-space area", "setting": "[1]; therapeutic experiment, each of the groups (start day 0, 3 or 7)", "value": "significantly suppressed"}, {"measurement": "content of KP-496 in murine lung", "setting": "[2]", "value": "418 ± 114", "unit": "ng"}]}]}
